According to ChEMBL document CHEMBL1201862, “PubChem BioAssay data set” (2004):
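Method: 48-hour compound exposure of cells in 96-well plates, five concentrations, linear interpolation of endpoints. Here, GI50 denotes the concentration required for 50% inhibition of growth.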 The source made the active and inactive calls. Cut-off read from the data, not from the text of the source: active = GI50 up to about 1.1 µM and inactive = higher.

What was measured:
Test in all cases: NCI anticancer screen, dose series, 48 h
NCI/ADR-RES = test system: NCI/ADR-RES
TK-10 = test system: TK-10
UACC-257 = test system: UACC-257
NCI-H460 = test system: NCI-H460
SK-MEL-28 = test system: SK-MEL-28
A498 = test system: A498
HCT-116 = test system: HCT-116
DU-145 = test system: DU-145
OVCAR-3 = test system: OVCAR-3
ACHN = test system: ACHN
NCI-H23 = test system: NCI-H23
MDA-MB-231 = test system: MDA-MB-231
LOX IMVI = test system: LOX IMVI
MCF7 = test system: MCF7
SW-620 = test system: SW-620
MOLT-4 = test system: MOLT-4
CCRF-CEM = test system: CCRF-CEM
PC-3 = test system: PC-3
HT-29 = test system: HT-29
OVCAR-8 = test system: OVCAR-8

Compound	GI50 (NCI/ADR-RES)	GI50 (TK-10)	GI50 (UACC-257)	GI50 (NCI-H460)	GI50 (SK-MEL-28)	GI50 (A498)	GI50 (HCT-116)	GI50 (DU-145)	GI50 (OVCAR-3)	GI50 (ACHN)	GI50 (NCI-H23)	GI50 (MDA-MB-231)	GI50 (LOX IMVI)	GI50 (MCF7)	GI50 (SW-620)	GI50 (MOLT-4)	GI50 (CCRF-CEM)	GI50 (PC-3)	GI50 (HT-29)	GI50 (OVCAR-8)
CCCC(=O)Nc1cc(/C=C/C(=O)N2CC(CCl)c3c2cc(O)c2[nH]cc(C)c32)n(C)c1 (stereo not drawn)	9.64e-05 µM (active)	< 2.5e-05 µM (active)	< 2.5e-05 µM (active)	< 2.5e-05 µM (active)	< 2.5e-05 µM (active)	< 2.5e-05 µM (active)	< 2.5e-05 µM (active)	< 2.5e-05 µM (active)	< 0.025 nM (active)	< 2.5e-05 µM (active)	< 2.5e-05 µM (active)	< 2.5e-05 µM (active)	< 2.5e-05 µM (active)	< 2.5e-05 µM (active)	< 2.5e-05 µM (active)	< 0.025 nM (active)	< 2.5e-05 µM (active)	< 2.5e-05 µM (active)	< 2.5e-05 µM (active)	< 2.5e-05 µM (active)
CCN(CC)CCCNc1c2cc(OC)ccc2nc2cccc([N+](=O)[O-])c12	0.274 µM (active)	0.195 µM (active)	0.227 µM (active)	0.0184 µM (active)	0.231 µM (active)	0.0127 µM (active)	0.0327 µM (active)	0.0551 µM (active)	34 nM (active)	0.0407 µM (active)	0.0746 µM (active)	0.122 µM (active)	0.024 µM (active)	0.0333 µM (active)	0.0352 µM (active)	27.4 nM (active)	0.128 µM (active)	0.0543 µM (active)	0.0456 µM (active)	0.0904 µM (active)
CC(=O)C1COC(O)C1C (stereo not drawn)	18.5 µM (inactive)	28.6 µM (inactive)	32.2 µM (inactive)	18.3 µM (inactive)	19.5 µM (inactive)	56.2 µM (inactive)	18.4 µM (inactive)	28.3 µM (inactive)	19000 nM (inactive)	23.9 µM (inactive)	16.1 µM (inactive)	22.2 µM (inactive)	16.4 µM (inactive)	20.7 µM (inactive)	18 µM (inactive)	17900 nM (inactive)	13.5 µM (inactive)	20 µM (inactive)	29.4 µM (inactive)	19.5 µM (inactive)
Oc1cc(O)c2c(c1)OC(c1ccc(O)c(O)c1)C(OC1(c3cc(O)c(O)c(O)c3)Oc3cc(O)cc(O)c3C(O)C1O)C2 (stereo not drawn)	30.2 µM (inactive)	> 100 µM (inactive)	37.4 µM (inactive)	18.4 µM (inactive)	> 40.6 µM (inactive)	> 34.1 µM (inactive)	24.6 µM (inactive)	> 49 µM (inactive)	35600 nM (inactive)	38.4 µM (inactive)	20.9 µM (inactive)	19.7 µM (inactive)	18.3 µM (inactive)	19.6 µM (inactive)	24.8 µM (inactive)	23500 nM (inactive)	15.1 µM (inactive)	49.7 µM (inactive)	18.1 µM (inactive)	26 µM (inactive)
CC(=O)O[C@H]1CCC2[C@@H]3CCC4Nc5oncc5C[C@]4(C)C3CC[C@@]21C (stereo partly drawn)	> 10 µM (inactive)	> 10 µM (inactive)	> 10 µM (inactive)	> 10 µM (inactive)	> 10 µM (inactive)	4.62 µM (inactive)	6.49 µM (inactive)	> 10 µM (inactive)	2550 nM (inactive)	> 10 µM (inactive)	> 10 µM (inactive)	> 10 µM (inactive)	> 10 µM (inactive)	8.55 µM (inactive)	> 10 µM (inactive)	3920 nM (inactive)	3.67 µM (inactive)	> 10 µM (inactive)	> 10 µM (inactive)	> 10 µM (inactive)
CC/C(Cl)=N\OC(=O)Nc1ccc(F)c(Cl)c1	19.5 µM (inactive)	17.5 µM (inactive)	17.3 µM (inactive)	17.7 µM (inactive)	15.6 µM (inactive)	16.2 µM (inactive)	14 µM (inactive)	19.7 µM (inactive)	2590 nM (inactive)	13.8 µM (inactive)	21.2 µM (inactive)	20 µM (inactive)	4.91 µM (inactive)	7.1 µM (inactive)	2.55 µM (inactive)	1480 nM (inactive)	2.04 µM (inactive)	16 µM (inactive)	24 µM (inactive)	17.7 µM (inactive)
C#CC(=O)OCC#CCOC(=O)C#C	24.9 µM (inactive)	16.3 µM (inactive)	> 100 µM (inactive)	> 100 µM (inactive)	–	> 100 µM (inactive)	15.7 µM (inactive)	26.8 µM (inactive)	17900 nM (inactive)	18.3 µM (inactive)	23.3 µM (inactive)	25.5 µM (inactive)	1.05 µM (active)	20.9 µM (inactive)	20 µM (inactive)	–	15.9 µM (inactive)	28.7 µM (inactive)	23 µM (inactive)	30.8 µM (inactive)
